Counter-ions that a name gives are not always drawn. Like-named read-outs stand apart in the source and are kept apart here.

We go through 25 compounds from US20230011869A1 (Hoffmann-La Roche Inc., priority 2018, published 2023).

The test concerns Acinetobacter baumannii ATCC17978. In words: Antimicrobial susceptibility testing: 90% growth inhibitory concentration (IC90) determination, Iso-Sensitest broth. The class given is cell-based. The procedure, abridged: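 A. baumannii ATCC17978 grown in Iso-Sensitest broth across 10 compound concentrations at 35±2 °C.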
Where [1] appears, read: Acinetobacter baumannii, ATCC17978, 16 h, read-out: ATCC17978 IC90, 90% growth inhibitory concentration, Acinetobacter baumannii ATCC17978, Iso-Sensitest broth, OD 600 nm over 16 h.
Where [2] appears, read: 90% growth inhibitory concentration, Acinetobacter baumannii ATCC17978, Iso-Sensitest broth, OD 600 nm over 16 h, read-out: ATCC17978 IC90.

With `COc1ccc(-c2cnc3c(Nc4ccc(C(=O)N5CCC(C(=O)NCCN)CC5)c(C)c4)nccn23)cc1F` [Example 393, N-(2-aminoethyl)-1-[4-[[3-(3-fluoro-4-methoxyphenyl)imidazo[1,2-a]pyrazin-8-yl]amino]-2-methylbenzoyl]piperidine-4-carboxamide; hydrochloride], the IC90 under setting [1] is 340 nM. The same measure, in the same setting: under `COc1ccc(-c2cnc3c(Nc4ccc(C(=O)N5CCC(CN)CC5)c(C(F)(F)F)c4)nccn23)cc1F` [Example 394, [4-(aminomethyl)piperidin-1-yl]-[4-[[3-(3-fluoro-4-methoxyphenyl)imidazo[1,2-a]pyrazin-8-yl]amino]-2-(trifluoromethyl)phenyl]meth-anone; formic acid] stands 340 nM. With `COc1ccc(-c2cnc3c(Nc4ccc(C(=O)N5CCC(C(=O)N6CCNC7(CC7)C6)CC5)c(C)c4)nccn23)cc1F` [Example 395, [4-(4,7-diazaspiro[2.5]octane-7-carbonyl)piperidin-1-yl]-[4-[[3-(3-fluoro-4-methoxyphenyl)imidazo[1,2-a]pyrazin-8-yl]amino]-2-methylphenyl]methanone; hy-drochloride], the IC90 under setting [2] is 340 nM. As to `COc1ccc(-c2cnc3c(Nc4ccc(C(=O)N5CCC(C(=O)NCCNCCO)CC5)c(C)c4)nccn23)cc1F` [Example 396, 1-[4-[[3-(3-fluoro-4-methoxyphenyl)imidazo[1,2-a]pyrazin-8-yl]amino]-2-methylbenzoyl]-N-[2-(2-hydroxyethylamino)ethyl]pi-peridine-4-carboxamide; 2,2,2-trifluoroacetic acid], the IC90 under setting [2] came to 340 nM. On to `COc1ccc(-c2cnc3c(Nc4ccc(C(=O)N5CCC(C(=O)N6CCN(c7nccn7C)CC6)CC5)c(C)c4)nccn23)cc1F` [Example 397, [4-[[3-(3-fluoro-4-methoxyphenyl)imidazo[1,2-a]pyrazin-8-yl]amino]-2-methylphenyl]-[4-[4-(1-methylimidazol-2-yl)piperazine-1-carbonyl]piperidin-1-yl]methanone], for which, under setting [2], the IC90 came to 360 nM. In the case of `CCc1cc(Nc2nccn3c(-c4ccc(OC)c(F)c4)cnc23)ccc1C(=O)N1CCN(C(=O)CNC)CC1` [Example 398, 1-[4-[2-ethyl-4-[[3-(3-fluoro-4-methoxyphenyl)imidazo[1,2-a]pyrazin-8-yl]amino]benzoyl]piperazin-1-yl]-2-(methylamino)ethanone; hy-drochloride], the IC90 under setting [2] was 370 nM. As to `COc1ccc(-c2cnc3c(Nc4ccc(C(=O)N5CCC(CNCCC#N)CC5)c(C)c4)nccn23)cc1` [Example 399, 3-[[1-[4-[[3-(4-methoxyphenyl)imidazo[1,2-a]pyrazin-8-yl]amino]-2-methylbenzoyl]piperidin-4-yl]methylamino]propanenitrile], the IC90 under setting [2] was found to be 380 nM. With `COc1ccc(-c2cnc3c(Nc4ccc(C(=O)N5CCC(C(=O)N6CC7(CNC7)C6)CC5)c(C)c4)nccn23)cc1F` [Example 400, [4-(2,6-diazaspiro[3.3]heptane-2-carbonyl)piperidin-1-yl]-[4-[[3-(3-fluoro-4-methoxyphenyl)imidazo[1,2-a]pyrazin-8-yl]amino]-2-methylphenyl]methanone; 2,2,2-trifluoroacetic acid], the IC90 under setting [1] turned out to be 390 nM. `COc1ccc(-c2cnc3c(Nc4ccc(C(=O)N5CCC(N6CCC(O)CC6)CC5)c(C)c4)nccn23)cc1F` [Example 401, [4-[[3-(3-fluoro-4-methoxyphenyl)imidazo[1,2-a]pyrazin-8-yl]amino]-2-methylphenyl]-[4-(4-hydroxypiperidin-1-yl)piperidin-1-yl]methanone]: under setting [2], the IC90 stood at 400 nM.

Regarding `COc1ccc(-c2cnc3c(Nc4ccc(C(=O)N5CCC(C(=O)NCC(O)CO)CC5)c(C)c4)nccn23)cc1F` (stereo not shown) [Example 402, N-(2,3-dihydroxypropyl)-1-[4-[[3-(3-fluoro-4-methoxyphenyl)imidazo[1,2-a]pyrazin-8-yl]amino]-2-methylbenzoyl]piperidine-4-carboxamide], the IC90 under setting [2] turned out to be 430 nM.

With `COc1ccc(-c2cnc3c(Nc4ccc(C(=O)N5CCC(C(=O)NCC6CNCCN6)CC5)c(C)c4)nccn23)cc1F` (stereo not shown) [Example 403, 1-[4-[[3-(3-fluoro-4-methoxyphenyl)imidazo[1,2-a]pyrazin-8-yl]amino]-2-methylbenzoyl]-N-(piperazin-2-ylmethyl)piperidine-4-carboxamide; 2,2,2-trifluoroacetic acid], the IC90 under setting [1] stood at 440 nM. Still for that read-out and setting: under `Cc1cc(Nc2nccn3c(-c4ccc(OC(F)F)cc4)cnc23)ccc1C(=O)N1CCC(C(=O)N(C)CCN2CCNC(=O)C2)CC1` [Example 404, 1-[4-[[3-[4-(difluoromethoxy)phenyl]imi-dazo[1,2-a]pyrazin-8-yl]amino]-2-methylbenzoyl]-N-methyl-N-[2-(3-oxopiperazin-1-yl)ethyl]piperidine-4-carboxamide] stands 470 nM; under `Cc1cc(Nc2nccn3c(-c4ccc(OC(F)F)cc4)cnc23)ccc1C(=O)N1CCC(C(=O)NC23CN4CN(CN(C4)C2)C3)CC1` [Example 405, 1-[4-[[3-[4-(difluoromethoxy)phenyl]imi-dazo[1,2-a]pyrazin-8-yl]amino]-2-methylbenzoyl]-N-(1,3,5-triazatricyclo[3.3.1.1^3,7]decan-7-yl)piperidine-4-carboxamide], 480 nM; under `COc1ccc(-c2cnc3c(Nc4ccc(C(=O)N5CCC(C(=O)N(C)CCCN)CC5)c(C)c4)nccn23)cc1F` [Example 406, N-(3-aminopropyl)-1-[4-[[3-(3-fluoro-4-methoxyphenyl)imidazo[1,2-a]pyrazin-8-yl]amino]-2-methylbenzoyl]-N-methylpiperidine-4-carboxamide; hydrochloride], 530 nM. With `COc1ccc(-c2cnc3c(Nc4ccc(C(=O)N5CCC(C(=O)NC6(C(N)=O)CNC6)CC5)c(C)c4)nccn23)cc1F` [Example 407, N-(3-carbamoylazetidin-3-yl)-1-[4-[[3-(3-fluoro-4-methoxyphenyl)imidazo[1,2-a]pyrazin-8-yl]amino]-2-methylbenzoyl]piperidine-4-carboxamide; 2,2,2-trifluoroacetic acid], the IC90 under setting [1] is 540 nM.

As to `COc1ccc(-c2cnc3c(Nc4ccc(C(=O)N5CCN(S(=O)(=O)N(C)C)CC5)c(C)c4)nccn23)cc1F` [Example 408, 4-[4-[[3-(3-fluoro-4-methoxyphenyl)imidazo[1,2-a]pyrazin-8-yl]amino]-2-methylbenzoyl]-N,N-dimethylpiperazine-1-sulfonamide], the IC90 under setting [2] amounted to 550 nM.

Take `Cc1cc(Nc2nccn3c(-c4ccc(OC(F)F)cc4)cnc23)ccc1C(=O)N1CCC(C(=O)N(C)CCO)CC1` [Example 409, 1-[4-[[3-[4-(difluoromethoxy)phenyl]imi-dazo[1,2-a]pyrazin-8-yl]amino]-2-methylbenzoyl]-N-(2-hydroxyethyl)-N-methylpiperidine-4-carboxamide]: the IC90 under setting [1] was 580 nM. `COc1ccc(-c2cnc3c(Nc4ccc(C(=O)N5CCN(CC(C)O)CC5)c(C)c4)nccn23)cc1F` (stereo not shown) [Example 410, [4-[[3-(3-fluoro-4-methoxyphenyl)imidazo[1,2-a]pyrazin-8-yl]amino]-2-methylphenyl]-[4-(2-hydroxypropyl)piperazin-1-yl]methanone]: the IC90 under setting [2] was found to be 670 nM. As to `COc1ccc(-c2cnc3c(Nc4ccc(C(=O)N5CCN(CCOCCO)CC5)c(C)c4)nccn23)cc1F` [Example 411, [4-[[3-(3-fluoro-4-methoxyphenyl)imidazo[1,2-a]pyrazin-8-yl]amino]-2-methylphenyl]-[4-[2-(2-hydroxyethoxy)ethyl]pipera-zin-1-yl]methanone], the IC90 under setting [2] was 720 nM. `COc1ccc(-c2cnc3c(Nc4ccc(C(=O)N5CCC(C(=O)NCCN6CCNCC6=O)CC5)c(C)c4)nccn23)cc1F` [Example 412, 1-[4-[[3-(3-fluoro-4-methoxyphenyl)imidazo[1,2-a]pyrazin-8-yl]amino]-2-methylbenzoyl]-N-[2-(2-oxopiperazin-1-yl)ethyl]piperidine-4-carboxamide; 2,2,2-trifluoroacetic acid]: the IC90 under setting [1] was 760 nM. `COc1ccc(-c2cnc3c(Nc4ccc(C(=O)N5CC6(CNC6)C5)c(C)c4)nccn23)cc1F` [Example 413, 2,6-diazaspiro[3.3]heptan-2-yl-[4-[[3-(3-fluoro-4-methoxyphenyl)imidazo[1,2-a]pyrazin-8-yl]amino]-2-methylphenyl]methanone; for-mic acid]: the IC90 under setting [2] amounted to 770 nM. As for `COc1ccc(-c2cnc3c(Nc4ccc(C(=O)NC5CC6(CNC6)C5)c(C)c4)nccn23)cc1F` [Example 414, N-(2-azaspiro[3.3]heptan-6-yl)-4-[[3-(3-fluoro-4-methoxyphenyl)imidazo[1,2-a]pyrazin-8-yl]amino]-2-methylbenzamide; hydrochlo-ride], under setting [2], the IC90 stood at 770 nM. On to `COc1ccc(-c2cnc3c(Nc4ccc(C(=O)N5CCNC6(CC6)C5)c(C)c4)nccn23)cc1F` [Example 416, 4,7-diazaspiro[2.5]octan-7-yl-[4-[[3-(3-fluoro-4-methoxyphenyl)imidazo[1,2-a]pyrazin-8-yl]amino]-2-methylphenyl]methanone; 2,2,2-trifluoroacetic acid], for which the IC90 under setting [1] worked out at 800 nM. As for `COc1ccc(-c2cnc3c(Nc4ccc(C(=O)N5CCC6(CNC6)C5)c(C)c4)nccn23)cc1F` [Example 417, 2,6-diazaspiro[3.4]octan-6-yl-[4-[[3-(3-fluoro-4-methoxyphenyl)imidazo[1,2-a]pyrazin-8-yl]amino]-2-methylphenyl]methanone; hy-drochloride], the IC90 under setting [2] is 960 nM. The same measure, in the same setting: under `COc1ccc(-c2cnc3c(Nc4ccc(C(=O)N5CCC(C(=O)NCCn6ccnc6)CC5)c(C)c4)nccn23)cc1F` [Example 418, 1-[4-[[3-(3-fluoro-4-methoxyphenyl)imidazo[1,2-a]pyrazin-8-yl]amino]-2-methylbenzoyl]-N-(2-imidazol-1-ylethyl)piperidine-4-carboxamide] stands 1000 nM.
